Test results from patent US9187458B2, “Cyanoquinoline derivatives” (Tianjin Hemay Bio-Tech Co., LTD., priority 2010, dated 2015).

What follows are compounds tested on A431 cells (assay: A431 Cell Growth Inhibition Test (MTT Assay)). Conditions: Homo sapiens, A-431, 68 h, compound 1 μM, 68 h incubation, read-out: Growth Inhibition Ratio (%).
Type: cell-based, human
Protocol: A431 Cell Growth Inhibition Test (MTT Assay)
1. Cell strains: A431 (human epithelial […] cell strains);
Culture medium: 45% DMEM, 45% F12+10% FBS;
1. A plate (10 cm) of cells in logarithmic growth phase normally cultured was collected;
2. The culture solution was sucked out. The plate was washed with 5 ml of PBS 1-2 times;
3. PBS was sucked out, and 2 ml of 0.25% pancreatin was added to infiltrate the cells for 1 min;
4. The pancreatin was sucked out, and the culture plate was placed in an incubator. Digestion was carried out for about 15 min at 37° C.;
5. 4 ml of complete culture solution was added in the culture plate to stop the digestion. The cells were carefully scoured with micropipette (1 ml) to give a uniform cell suspension. The suspension was implanted into a 96-well cell culture plate by 2500 cells/100 μl per well. The culture plate was incubated overnight under 5% CO2 at 37° C. In day 2, 100 μl of culture solution comprising the compound was added in each well, and further incubated for 68 h under 5% CO2 at 37° C.
6. The culture solution was sucked out;
7. 100 μl of serum-free culture solution containing 0.5 mg/ml MTT was added in each well, and incubated for 4 h;
8. The culture solution was carefully sucked out;
9. 100 μl of DMSO was added into each well and vibrated to dissolve;
10. OD values were determined at 490 nM.
(§1) 1. Calculation of Relative Inhibition Ratio The inhibition ratio of a compound on cell growth=(PC−n)/(PC−NC)×100%
IC50: concentration of a compound where inhibition ratio was 50%. IC50 values were fitted with Origin7.5.
`CN(C)C/C=C/C(=O)Nc1cc2c(Nc3ccc(F)c(Cl)c3)c(C#N)cnc2cc1OC1CCOC1` (mixture of isomers) [Example 176, (E/Z)-N-(4-(3-CHLORO-4-FLUOROPHENYLAMINO)-3-CYANO-7-(TETRAHYDROFURAN-3-YL-OXY)QUINOLIN-6-YL)-4-(DIMETHYLAMINO)-BUT-2-ENAMIDE] gave an inhibition at 1 µM of 79%.
`CN(C)C/C=C/C(=O)Nc1cc2c(Nc3ccc(OCc4ccccc4)cc3)c(C#N)cnc2cc1O[C@H]1CCOC1` [Example 155, (S,E)-N-(4-(4-(BENZYLOXY)PHENYLAMINO)-3-CYANO-7-(TETRAHYDROFURAN-3-YL-OXY)QUINOLIN-6-YL)-4-(DIMETHYLAMINO)-BUT-2-ENAMIDE] gave an inhibition at 1 µM of 82%.
For `CN(C)C/C=C/C(=O)Nc1cc2c(Nc3ccc(OCc4ccccc4F)c(Cl)c3)c(C#N)cnc2cc1O[C@H]1CCOC1` [Example 157, (S,E)-N-(4-(4-(2-FLUOROBENZYLOXY)-3-CHLOROPHENYLAMINO)-3-CYANO-7-(TETRAHYDROFURAN-3-YL-OXY)QUINOLIN-6-YL)-4-(DIMETHYLAMINO)-BUT-2-ENAMIDE], the inhibition at 1 µM was 72%.
`N#Cc1cnc2cc(O[C@H]3CCOC3)c(NC(=O)/C=C/CN3CCCCC3)cc2c1Nc1ccc(OCc2ccccn2)c(Cl)c1` [Example 185, (S,E/Z)-N-(4-(3-CHLORO-4-(PYRIDIN-2-YL-METHOXY)PHENYLAMINO)-3-CYANO-7-(TETRAHYDROFURAN-3-YL-OXY)QUINOLIN-6-YL)-4-(PIPERIDIN-1-YL)-BUT-2-ENAMIDE] gave an inhibition at 1 µM of 70%.

What follows are compounds tested on BT-474 cells (assay: BT-474 Cell Growth Inhibition Test (SRB Assay)). Conditions: Homo sapiens, 70 h incubation.
Type: cell-based, human
Protocol: BT-474 Cell Growth Inhibition Test (SRB Assay)
1. Cell strains: BT-474 (human breast tumor cell strains);
2. SRB: available from Sigmaaldrich, goods number: S9012, lot number: 047K3751. SRB was reserved at the room temperature. 0.4% (w/v) of working solution was formulated with 1% of glacial acetic acid. The solution was reserved at the temperature of 4° C.; anti-tumor compounds; DMSO.
Culture medium (90% EMEM+10% FBS+0.1 mM NEAA, reserved at 4° C.);
1. A plate (10 cm) of cells in logarithmic growth phase normally cultured was collected. The culture solution was sucked out. The plate was washed with 5 mL of PBS 1-2 times;
2. PBS was sucked out, and […] of 0.25% pancreatin was added to infiltrate the cells for 30 s;
3. The pancreatin was sucked out. The culture plate was pleaced in an incubator. Digestion was carried out for about 5 min at 37° C.;
4. 3 mL of complete culture solution was added to the culture plate to stop the digestion. The cells were carefully scoured with micropipette (1 ml) to give a uniform single cell suspension;
5. Cell suspension was counted. The suspension was diluted to 1×10^5/ml. The resulting suspension was developed uniformly on a plate. The plate was incubated under 5% CO2 at 37° C. overnight. In day 2, 80 μL of complete culture medium was added in each well and then 20 μL of culture solution comprising a compound was added. The mixture was incubated for 70 h under 5% CO2 at 37° C.
6. The culture solution was sucked out. 100 uL of TCA fixed cells which were diluted to 10% were added to each well. The plate was kept in a refrigerator for 1 h at 4° C.
7. TCA stationary liquid was sucked out. Each well was washed with 150 μL of ddH2O five times;
8. After the stationary liquid was cleansed, the plate was dried in the air at the room temperature;
9. 60 μL of SRB staining solution was added in each well. The well was stained for 15 min at the room temperature;
10. The SRB staining solution was sucked out. Each well was washed with 150 μL of 1% glacial acetic acid five times;
11. After the SRB staining solution was cleansed, the plate was dried in the air at the room temperature;
12. 100 μL of 10 mM Tris was added in each well. The plate was vibrated to dissolve out SRB;
13. OD values were determined at 570 nM.
as §1
IC50: Concentration of a compound where inhibition ratio was 50%. IC50 values were fitted with Origin7.5.
Compound `C#Cc1cccc(Nc2c(C#N)cnc3cc(O[C@H]4CCOC4)c(NC(=O)/C=C/CN(CCOC)CCOC)cc23)c1` [Example 191, (S,E)-N-(3-CYANO-4-(3-ETHYNYLPHENYLAMINO)-7-(TETRAHYDROFURAN-3-YL-OXY)QUINOLIN-6-YL)-4-(DIMETHOXYETHYLAMINO)-BUT-2-ENAMIDE] has an IC50 of 390 nM.

Same assay, conditions: Homo sapiens, BT-474, 70 h, compound 1 μM, 70 h incubation, read-out: Growth Inhibition Ratio (%)
In the case of `COCCN(C/C=C/C(=O)Nc1cc2c(Nc3ccc(OCc4ccccn4)c(Cl)c3)c(C#N)cnc2cc1O[C@H]1CCOC1)CCOC` [Example 203], the inhibition at 1 µM is reported as 82%.
With `CN(C)C/C=C/C(=O)Nc1cc2c(Nc3ccc(F)c(Cl)c3)c(C#N)cnc2cc1OC1CCOC1` (mixture of isomers) [Example 176, (E/Z)-N-(4-(3-CHLORO-4-FLUOROPHENYLAMINO)-3-CYANO-7-(TETRAHYDROFURAN-3-YL-OXY)QUINOLIN-6-YL)-4-(DIMETHYLAMINO)-BUT-2-ENAMIDE] the inhibition at 1 µM was 89%.
`CN(C)C/C=C/C(=O)Nc1cc2c(Nc3ccc(OCc4ccccc4C#N)c(Cl)c3)c(C#N)cnc2cc1O[C@H]1CCOC1` [Example 162, (S,E)-N-(4-(4-(2-CYANOBENZYLOXY)-3-CHLOROPHENYLAMINO)-3-CYANO-7-(TETRAHYDROFURAN-3-YL-OXY)QUINOLIN-6-YL)-4-(DIMETHYLAMINO)-BUT-2-ENAMIDE] showed an inhibition at 1 µM of 80%.
In the case of `CCN(CC)C/C=C/C(=O)Nc1cc2c(Nc3ccc(F)c(Cl)c3)c(C#N)cnc2cc1O[C@H]1CCOC1` [Example 168, (S,E)-N-(4-(3-CHLORO-4-FLUOROPHENYLAMINO)-3-CYANO-7-(TETRAHYDROFURAN-3-YL-OXY)QUINOLIN-6-YL)-4-(DIETHYLAMINO)-BUT-2-ENAMIDE], the inhibition at 1 µM is reported as 86%.
For `N#Cc1cnc2cc(O[C@H]3CCOC3)c(NC(=O)/C=C/CN3CCCCC3)cc2c1Nc1ccc(F)c(Cl)c1` [Example 169, (S,E)-N-(4-(3-CHLORO-4-FLUOROPHENYLAMINO)-3-CYANO-7-(TETRAHYDROFURAN-3-YL-OXY)QUINOLIN-6-YL)-4-(PIPERIDIN-1-YL)-BUT-2-ENAMIDE], the inhibition at 1 µM was 80%.
`CN(C/C=C/C(=O)Nc1cc2c(Nc3ccc(OCc4cccc(F)c4)c(Cl)c3)c(C#N)cnc2cc1O[C@H]1CCOC1)CCO` [Example 198, (S,E)-N-(3-CYANO-4-(4-(3-FLUOROBENZYLOXY)-3-CHLOROPHENYLAMINO)-7-(TETRAHYDROFURAN-3-YL-OXY)QUINOLIN-6-YL)-4-(N-METHYLETHANOLAMINO)-BUT-2-ENAMIDE] was tested, and the inhibition at 1 µM was 78%.
For `CN(C)C/C=C/C(=O)Nc1cc2c(Nc3cccc(Br)c3)c(C#N)cnc2cc1O[C@H]1CCOC1` [Example 156, (S,E)-N-(4-(3-BROMOPHENYLAMINO)-3-CYANO-7-(TETRAHYDROFURAN-3-YL-OXY)QUINOLIN-6-YL)-4-(DIMETHYLAMINO)-BUT-2-ENAMIDE], the inhibition at 1 µM was 70%.
Compound `C#Cc1cccc(Nc2c(C#N)cnc3cc(O[C@H]4CCOC4)c(NC(=O)/C=C/CNCc4ccccc4)cc23)c1` [Example 147, (S,E)-N-(3-CYANO-4-(3-ETHYNYLPHENYLAMINO)-7-(TETRAHYDROFURAN-3-YL-OXY)QUINOLIN-6-YL)-4-(BENZYLAMINO)-BUT-2-ENAMIDE] has an inhibition at 1 µM of 75%.
`N#Cc1cnc2cc(O[C@H]3CCOC3)c(NC(=O)/C=C/CN3CCCCC3)cc2c1Nc1ccc(OCc2cccc(F)c2)c(Cl)c1` [Example 172, (S,E)-N-(4-(4-(3-FLUOROBENZYLOXY)-3-CHLOROPHENYLAMINO)-3-CYANO-7-(TETRAHYDROFURAN-3-YL-OXY)QUINOLIN-6-YL)-4-(PIPERIDIN-1-YL)-BUT-2-ENAMIDE] was tested, and the inhibition at 1 µM was 62%.
With `COCCN(C)C/C=C/C(=O)Nc1cc2c(Nc3ccc(OCc4ccccn4)c(Cl)c3)c(C#N)cnc2cc1O[C@H]1CCOC1` [Example 201, (S,E)-N-(3-CYANO-4-(3-CHLORO-4-(PYRIDIN-2-YL-METHOXY)PHENYLAMINO)-7-(TETRAHYDROFURAN-3-YL-OXY)QUINOLIN-6-YL)-4-(N-METHYLMETHOXY ETHYLAMINO)-BUT-2-ENAMIDE] the inhibition at 1 µM was 80%.
With `N#Cc1cnc2cc(O[C@H]3CCOC3)c(NC(=O)/C=C/CN(CCO)CCO)cc2c1Nc1ccc(F)c(Cl)c1` [Example 192, (S,E)-N-(3-CYANO-4-(3-CHLORO-4-FLUORO-PHENYLAMINO)-7-(TETRAHYDROFURAN-3-YL-OXY)QUINOLIN-6-YL)-4-(DIETHANOLAMINO)-BUT-2-ENAMIDE] the inhibition at 1 µM was 85%.
With `N#Cc1cnc2cc(O[C@H]3CCOC3)c(NC(=O)/C=C/CNCCCCCCO)cc2c1Nc1ccc(F)c(Cl)c1` [Example 205, (S,E)-N-(3-CYANO-4-(3-CHLORO-4-FLUORO-PHENYLAMINO)-7-(TETRAHYDROFURAN-3-YL-OXY)QUINOLIN-6-YL)-4-(6-HYDROXYHEXYLAMINO)-BUT-2-ENAMIDE] the inhibition at 1 µM was 75%.
`N#Cc1cnc2cc(O[C@H]3CCOC3)c(NC(=O)/C=C/CN3CCOCC3)cc2c1Nc1ccc(OCc2cccc(F)c2)c(Cl)c1` [Example 173, (S,E)-N-(4-(4-(3-FLUOROBENZYLOXY)-3-CHLOROPHENYLAMINO)-3-CYANO-7-(TETRAHYDROFURAN-3-YL-OXY)QUINOLIN-6-YL)-4-(MORPHOLIN-4-YL)-BUT-2-ENAMIDE] showed an inhibition at 1 µM of 67%.
In the case of `CCN(CC)C/C=C/C(=O)Nc1cc2c(Nc3ccc(OCc4cccc(F)c4)c(Cl)c3)c(C#N)cnc2cc1O[C@H]1CCOC1` [Example 171, (S,E)-N-(4-(4-(3-FLUOROBENZYLOXY)-3-CHLOROPHENYLAMINO)-3-CYANO-7-(TETRAHYDROFURAN-3-YL-OXY)QUINOLIN-6-YL)-4-(DIETHYLAMINO)-BUT-2-ENAMIDE], the inhibition at 1 µM is reported as 84%.

Same assay, conditions: compound 1 μM, 70 h incubation
For `N#Cc1cnc2cc(O[C@H]3CCOC3)c(NC(=O)/C=C/CN3CCOCC3)cc2c1Nc1ccc(OCc2ccccn2)c(Cl)c1` [Example 186, (S,E/Z)-N-(4-(3-CHLORO-4-(PYRIDIN-2-YL-METHOXY)PHENYLAMINO)-3-CYANO-7-(TETRAHYDROFURAN-3-YL-OXY)QUINOLIN-6-YL)-4-(MORPHOLIN-4-YL)-BUT-2-ENAMIDE], the “Growth Inhibition Ratio (%)” value was 80%.
In the case of `CCN(CC)C/C=C/C(=O)Nc1cc2c(Nc3ccc(OCc4ccccn4)c(Cl)c3)c(C#N)cnc2cc1O[C@H]1CCOC1` [Example 184, (S,E/Z)-N-(4-(3-CHLORO-4-(PYRIDIN-2-YL-METHOXY)PHENYLAMINO)-3-CYANO-7-(TETRAHYDROFURAN-3-YL-OXY)QUINOLIN-6-YL)-4-(DIETHYLAMINO)-BUT-2-ENAMIDE], the “Growth Inhibition Ratio (%)” value is reported as 83%.
